Assay results taken from US20110269825A1, “Modified Thromboxane A2 Receptor Promoter Sequence” (priority 2008, published 2011).

How the values were obtained:
Type in all cases: cell-based, human
[1] = test system: Egr1; test: Immunoblot analysis of Egr1 expression in HEL cells; conditions: PMA 100 nM, 0-48 h
Method: The expression of WT1, Sp1, Egr1, NF-E2, GATA-1 and Ets-1 proteins in HEL cells was confirmed by western blot analysis. Briefly, whole cell protein was resolved by SDS-PAGE (10% acrylamide gels) and transferred to polyvinylidene difluoride (PVDF) membrane according to standard methodology. […] For PMA studies, HEL cells were pre-incubated for the indicated amount of time with 100 nM PMA, with 10 μM PD98059, with 100 nM PMA plus 10 μM PD98059 or, as a control, with vehicle [0.1% (v/v) DMSO]. Whole cell protein (60 μg per lane) was resolved by SDS-PAGE (10% acrylamide gels) and transferred to polyvinylidene difluoride (PVDF) membrane according to standard methodology.

[2] = test system: WT1; test: Immunoblot analysis of WT1 expression in HEL cells; conditions: PMA 100 nM over 48 h
Method: The expression of WT1, Sp1, Egr1, NF-E2, GATA-1 and Ets-1 proteins in HEL cells was confirmed by western blot analysis. Briefly, whole cell protein was resolved by SDS-PAGE (10% acrylamide gels) and transferred to polyvinylidene difluoride (PVDF) membrane according to standard methodology. Membranes were screened using anti-WT1, anti-NF-E2, anti-Sp1, anti-Egr1, anti-GATA-1 or anti-Ets-1 sera in 5% non fat dried milk in 1×TBS (0.01 M Tris/HCl, 0.1 M NaCl) for 2 h at room temperature followed by washing and screening using goat anti-rabbit horseradish peroxidase (sc-2204) followed by chemiluminescence detection, as described by the supplier (Roche Applied Science). For PMA studies, HEL cells were pre-incubated for the indicated amount of time with 100 nM PMA, with 10 μM PD98059, with 100 nM PMA plus 10 μM PD98059 or, as a control, with vehicle [0.1% (v/v) DMSO]. Whole cell protein (60 μg per lane) was resolved by SDS-PAGE (10% acrylamide gels) and transferred to polyvinylidene difluoride (PVDF) membrane according to standard methodology. […] Cells were harvested 48 hr post-transfection and aliquots ([…]) were analysed by SDS-PAGE/western blot analysis. As a positive control for hTF expression, […] of a commercial control Tissue-Factor Biomass was also analysed. […]

[3] = test system: −8460 to −8006 region of Prm1; test: ChIP analysis of WT1, Egr1 and Sp1 binding to Prm1 in PMA-treated HEL cells; conditions: PMA 100 nM for 5, 8 or 16 h
Method: Chromatin immunoprecipitation (ChIP) assays were performed essentially as described (Koch et al., 2007). Specifically, HEL cells (1×10^8) were pelleted, washed in ice-cold PBS and resuspended in serum-free RPMI 1640. Formaldehyde-cross linked chromatin was sonicated, as described (Koch et al., 2007), to generate fragments 500 bp to 1000 bp in length. Prior to immunoprecipitation (IP), chromatin was incubated with 60 μg normal rabbit IgG overnight at 4° C. on a rotisserie, after which 250 μl of salmon sperm DNA/protein A agarose beads (Millipore) were added and chromatin was precleared for 3 h at 4° C. with rotation. Thereafter, anti-WT1, anti-NF-E2, anti-Sp1, anti-Egr1, anti-GATA-1, anti-Ets-1 ([…]), normal rabbit IgG (10 μg), or a “no antibody” control were used for immunoprecipitation. Following elution, cross-links were reversed by incubation at 65° C. overnight followed by protease digestion with proteinase K (Sigma; 9 μl of 10 mg/ml) at 45° C. for 7 h. After precipitation, samples were resuspended in 50 μl dH2O. PCR analysis was carried out using 2-3 μl of ChIP sample as template or, as a positive control, with an equivalent volume of a 1:20 dilution of the input chromatin DNA. The identities of the primers used for the ChIP PCR reactions, as well as their sequences and corresponding nucleotides within Prm1 are listed below. […]

[4] = test system: TPα mRNA; test: RT-PCR and Southern blot analysis of TPα mRNA expression in HEL cells; conditions: PMA 100 nM, 2 to 48 h
Method: Total RNA was isolated from HEL 92.1.7 cells (5×10^6 approximately) using TRIzol reagent (Invitrogen Life Technologies). RT-PCR was carried out with DNase 1-treated total RNA using oligonucleotide primers to specifically amplify TPα and glyceraldehyde-3-phosphate dehydrogenase (GAPDH) mRNA sequences, as previously described (Miggin et al., 1998). The following primers were used: […]
Following agarose gel electrophoresis, PCR products were transferred to Biodyne® B positively-charged nylon membrane (PaII) using standard methodology (Sambrook et al., 1989). Southern blot analysis of the RT-PCR products was carried out using oligonucleotide probes (5′ end-labelled with biotin) specific for TPα (Kin 583: 5′[Btn][…] GAAG3′, SEQ ID NO:80) and GAPDH (Kin 584: 5′[Btn][…]3′, SEQ ID NO:81] mRNA sequences and detection was carried out using the Detector™ HRP Chemiluminescent Blotting Kit (KPL), as described by the manufacturer.

CCCCCCCCCCCCCC(=O)O[C@@H]1[C@@H](C)[C@@]2(O)[C@@H](C=C(CO)C[C@]3(O)C(=O)C(C)=C[C@@H]23)[C@@H]2C(C)(C)[C@]12OC(C)=O [PMA, phorbol 12-myristate 13-acetate]
Egr1 protein expression [1]: significant increase in Egr1 expression from 1 to 16 h | WT1 protein expression [2]: did not substantially alter the expression of the WT1 doublet | Binding of WT1, Egr1 and Sp1 to Prm1 chromatin [3]: substantial changes in the pattern of binding of these factors to distal upstream GC-enriched elements | TPα mRNA expression [4]: time-dependent, sustained increase in TPα mRNA expression
